# Test results as given in patent US10695314B2, “Antimicrobial composition containing 7,10-epoxyoctadeca-7,9-dienoic acid as active ingredient” (priority 2016, dated 2020).
# Read-outs that look alike come from different tables or passages of the source. Where a SMILES comes first, the peptide text is derived from it. Bridges are numbered along the chain shown (N, C = ends). [ ]: non-standard residue; d: D form. The star is where a group is joined. Ileψ(thiazoline)Cys = CC[C@H](C)[C@H](N)C1=N[C@H](C(=O)*)CS1; dOrn = NCCC[C@@H](N)C(=O)O
# What was measured:
# [1] = system: MDRSA 01ST001; experiment: Degree of synergy (Bliss independence model); assay type: cell-based, Staphylococcus aureus; settings: antibiotic ¼×MIC in combination with 7,10-EODA 15.6 μg/mL (⅛×MIC), 24 hours
# Description: (§1) Interactions of the selected antibiotic or 7,10-EODA of the present invention were evaluated using the checker board method (Nair et al. 2015). […] To obtain various concentrations of 7,10-EODA and antibiotic combination, a 2-fold dilution of the beta-lactam antibiotic was placed on the same plate. About 10^5 CFU/mL of microorganisms to be tested was added to the wells of each plate, and cultured for 24 hours at 37° C. without shaking. At the end of the culture period, cell growth was measured at OD600 using a spectrophotometer. Each 7,10-EODA and antibiotic combination was repeated at least three times. MIC was identified at the lowest concentration of antibiotics with growth inhibition of 90% or higher. FICAB means fractional inhibitory concentration (FIC) of drug A in the presence of drug B, and FICBA means fractional inhibitory concentration (FIC) of drug B in the presence of drug A. The fractional inhibitory concentration index (FICI) represents the sum of the FIC values of the interacting antibiotics. Interactions are based on FICI values, with FICIs less than 0.5 being categorized as synergy, FICIs 0.5 to 4 being indifferent, and FICIs greater than 4 being antagonistic. The degree of synergy was also measured based on the conventional Bliss independence model of synergy (Morones-Ramirez et al. 2013). Specifically, the degree of synergy was calculated by the following equation: S indicates degree of synergy, fAB indicates bacterial growth (optical density) when 7,10-EODA and antibiotics are used in combination, fA0 and f0B represent bacterial growth for antibiotic alone or 7,10-EODA single treatment, respectively. f00 represents bacterial growth in the absence of drug. The degree of synergy is divided into three categories based on the S value, where 0 means neutral, greater than 0 means synergism, and less than 0 means antagonism. S=(fA0/f00)(f0B/f00)−(fAB/f00)
# (§2) The results are illustrated in FIG. 10. […]
# [2] = system: MRSA 01ST018; experiment: Degree of synergy (Bliss independence model); assay type: cell-based, Staphylococcus aureus; settings: antibiotic ¼×MIC in combination with 7,10-EODA 15.6 μg/mL (⅛×MIC); 24 hours; MRSA 018
# Description: as §1, §2
# [3] = system: MDRSA 01ST001; experiment: Agar disk diffusion analysis, zone of inhibition (ZOI); assay type: cell-based, Staphylococcus aureus; settings: for antimicrobial activity, disk diffusion: 100 μg each, FIG. 4; for antimicrobial activity effect in combination with 7,10-EODA: antibiotic treated in combination with 7,10-EODA, Table 1 summary; for ZOI without 7.10-EODA / ZOI with 7.10-EODA: strain 001; for ZOI without 7.10-EODA: antibiotic ½×MIC alone; for ZOI with 7.10-EODA: antibiotic ½×MIC with 7,10-EODA ¼×MIC
# Description: (§3) For synergy effect screening, a 0.1 mL aliquot of MRSA or MSSA strain (5×10^5 CFU/mL) cultured in a log-phase on TSA plates was inoculated. […] A disk including DMSO alone or 7,10-EODA alone (¼×MIC) was used as a control group. The plates were cultured under conditions of […] and 24 hours, and a synergistic effect was observed when the disk periphery including both antibiotic and 7,10-EODA was at least 5 mm in zone of inhibition (ZOI).
# Specifically, in order to compare the antimicrobial activity of the 7,10-EODA or the antibiotic of the present invention against the MDRSA 01ST001 strain, the MDRSA 01ST001 strain was treated with the 7,10-EODA (E 100 μg) of the present invention, streptomycin (S, 100 μg), ampicillin (A, 100 μg), oxacillin (O, 100 μg), vancomycin (V, 100 μg), or penicillin (P, 100 μg), according to the method described in Experimental Example 5.
# (§4) Specifically, the minimal inhibitory concentration (MIC) was measured according to the method of Experimental Example 4 above, and the degree of inhibition (Agar diffusion analysis) (zone of inhibition; ZOI) was measured according to the method of Experimental Example 5 above.
# [4] = system: E. coli ATCC 8739; experiment: Checker board synergy evaluation (MIC, FICI); assay type: cell-based; settings: Escherichia coli, ATCC8739, 24 h; strain 8739; single agent
# Description: as §1
# (§5) The antimicrobial activity synergistic effects according to the combination treatment of 7,10-EODA and each antibiotic on methicillin-resistant Staphylococcus aureus (MRSA) strains 085, 093, 120, 136, and 165, MDRSA 01ST001, which is a multidrug-resistant Staphylococcus aureus (MDRSA) strain, E. coli ATCC 8739, and S. typhimurium KCTC 2515 were confirmed. […] Fractional inhibitory concentration indices (FICI) values accordingly were confirmed.
# [5] = system: MDRSA 01ST001; experiment: Checker board synergy evaluation (MIC, FICI); assay type: cell-based; settings: Staphylococcus aureus, 24 h; strain 001; single agent
# Description: as §1, §5
# [6] = system: MRSA strain 085; experiment: Checker board synergy evaluation (MIC, FICI); assay type: cell-based; settings: Staphylococcus aureus, 24 h
# Description: as §1, §5
# [7] = system: MRSA strain 093; experiment: Checker board synergy evaluation (MIC, FICI); assay type: cell-based; settings: Staphylococcus aureus, 24 h
# Description: as §1, §5
# [8] = system: MRSA strain 120; experiment: Checker board synergy evaluation (MIC, FICI); assay type: cell-based; settings: Staphylococcus aureus, 24 h
# Description: as §1, §5
# [9] = system: MRSA strain 136; experiment: Checker board synergy evaluation (MIC, FICI); assay type: cell-based; settings: Staphylococcus aureus, 24 h
# Description: as §1, §5
# [10] = system: MRSA strain 165; experiment: Checker board synergy evaluation (MIC, FICI); assay type: cell-based; settings: Staphylococcus aureus, 24 h
# Description: as §1, §5
# [11] = system: S. typhimurium KCTC 2515; experiment: Checker board synergy evaluation (MIC, FICI); assay type: cell-based, Salmonella typhimurium; settings: Salmonella enterica, 24 h; strain 2515; single agent
# Description: as §1, with “S=(fA0/f00)(f0B/f00)−(fAB/f00) […]” for “S=(fA0/f00)(f0B/f00)−(fAB/f00)”
# [12] = system: MRSA 01ST001 (MDRSA 01ST001); experiment: Antimicrobial activity on solid medium (clear zone around filter paper); assay type: cell-based, Staphylococcus aureus; settings: for clear zone on agar plate: 100 μg per filter paper, 37° C., 2 to 3 days, FIG. 1; for antimicrobial activity on solid medium: MDRSA 01ST001, FIG. 3
# Description: (§6) First, 1.5% of potato agar was added to the YDP medium, sterilized, and then an agar plate hardened by pouring about 20 ml in a plastic Petri dish was used. MRSA 01ST001 was diluted to about 107/ml, and then about 500 μl was dispersed evenly on the agar plate.
# (§7) The size of the clear zone around the filter paper shown after the culture at 37° C. for 2 to 3 days after the inoculation was measured to confirm the degree of antimicrobial activity. At this time, vancomycin 100 μg, oxacillin 100 μg, ampicillin 100 μg, streptomycin 100 μg, and penicillin 100 μg were used as control groups.
# (§8) The antimicrobial activity can be confirmed with the degree showing the clear zone on the agar plate. It is judged that the larger the clear zone, the higher the antimicrobial activity. The results are illustrated in FIG. 1 and FIG. 2.
# (§9) The results are illustrated in FIG. 3. The experiment was carried out in the same manner as in Example 1-2.
# [13] = system: Staphylococcus aureus ATCC 29213; experiment: as above; assay type: cell-based; settings: FIG. 3
# Description: as §6, §7, §8, §9
# [14] = system: MDRSA 01ST001; experiment: microbe, parasite or virus in culture; assay type: cell-based; settings: Staphylococcus aureus, 12 h
# Source text: The results are illustrated in FIG. 11.
# [15] = system: HepG2 animal cells
# Description: Simple toxicity tests were performed for the four components of 7,10-EODA, DOD, oleic acid, and DMSO. The target cells were HepG2 animal cells and the results were obtained by MTT assay.
# [16] = system: MDRSA 01ST001; settings: 125 μg/ml
# [17] = system: MDRSA 01ST001; experiment: microbe, parasite or virus in culture; settings: Staphylococcus aureus
# [18] = system: Staphylococcus aureus ATCC 29213; experiment: Minimal inhibitory concentration (MIC), broth microdilution per CLSI; assay type: cell-based; settings: Staphylococcus aureus, ATCC29213; strain 29213 (ATCC 29213); antibiotic alone; read-out: MIC
# Description: The minimum inhibitory concentration (MIC) of antibiotics and the activity of 7,10-EODA of the present invention against Staphylococcus aureus strains were measured according to the CLSI guideline (CLSI document M100-517, 2007). Specifically, each antibiotic or 7,10-EODA was diluted 2-fold (200-0.97 μg/mL) by adding MHB (Mueller-Hinton Broth) to a 96-well microtiter plate. In the mid-exponential phase (0.5 OD600), the culture was diluted 10-fold with MHB and 0.1 mL aliquots of the diluent were added to wells containing the serially diluted test reagent and cultured at 37° C. for 12 hours. About the end of the culture period, the cell density was measured at an optical density of 600 nm (OD600) using a […].
# as §4
# [19] = system: Staphylococcus aureus ATCC 29213; experiment: Agar disk diffusion analysis, zone of inhibition (ZOI); assay type: cell-based; settings: strain 29213; for ZOI without 7.10-EODA: antibiotic ½×MIC alone; for ZOI with 7.10-EODA: antibiotic ½×MIC with 7,10-EODA ¼×MIC
# Description: as §3, §4
# [20] = system: MDRSA 01ST001; experiment: Minimal inhibitory concentration (MIC), broth microdilution per CLSI; settings: Staphylococcus aureus
# [21] = strain 085, single agent, read-out: MIC
# [22] = strain 093, single agent, read-out: MIC
# [23] = strain 120, single agent, read-out: MIC
# [24] = strain 136, single agent, read-out: MIC
# [25] = strain 165, single agent, read-out: MIC
Compound,synergy index [1],"antimicrobial activity, disk diffusion [3]",MIC [4] [mg/L],MIC [5] [mg/L],MIC [11] [mg/L],clear zone on agar plate [12],antimicrobial activity on solid medium [12],antimicrobial activity on solid medium [13],MIC [18] [mg/L],"antimicrobial activity effect in combination with 7,10-EODA [3]",ZOI without 7.10-EODA [3] [mm],ZOI with 7.10-EODA [3] [mm],ZOI without 7.10-EODA [19] [mm],ZOI with 7.10-EODA [19] [mm],"MIC [6, 21] [mg/L]","MIC [7, 22] [mg/L]","MIC [8, 23] [mg/L]","MIC [9, 24] [mg/L]","MIC [10, 25] [mg/L]",MIC [20] [mg/L],other results
gentamicin,1.37,,,,,,,,,,,,,,,,,,,,synergy index [2]: 1.32
"CCCCCCCCc1ccc(CCCCCC(=O)O)o1 [7,10-EODA, 7,10-epoxyoctadeca-7,9-dienoic acid]",,showed the antimicrobial activity,500,125,500,clear zone similar in size to vancoclin,higher antimicrobial activity than Staphylococcus aureus ATCC 29213,antimicrobial activity was exhibited,,,,,,,,,,,,,"antimicrobial activity according to concentration ([3]; 50, 100, 200 and 400 μg, FIG. 5): high in a concentration-dependent manner; MIC [6]: 125 mg/L; MIC [7]: 125 mg/L; MIC [8]: 125 mg/L; MIC [9]: 125 mg/L; MIC [10]: 125 mg/L; clear zone size with treatment concentration ([12]; 50, 100, 200 and 400 μg, FIG. 2): improved in a concentration-dependent manner; MIC90 ([14]; read-out: MIC90 concentration): ≤ 15.6 mg/L; inhibition at 15.6 µg/mL ([14]; read-out: reduction of residual viable microorganisms compared to the control): > 90%; toxicity as a whole [15]: not highly toxic; time until MDRSA 01ST001 was completely killed [16]: ≤ 10 min; viability at 62.5 µg/mL ([17]; 10 min, read-out: residual viable microorganism concentration compared to the control): < 10%; inhibition at 15.6 µg/mL ([17]; 4 h, read-out: decrease of residual viable microorganism concentration compared to the control): ≥ 50%"
"Cc1onc(-c2ccccc2)c1C(=O)N[C@@H]1C(=O)N2[C@@H]1SC(C)(C)[C@@H]2C(=O)O [OXA, oxacillin]",,resistant,200,62.5,250,no clear zone appeared,did not show an antimicrobial activity,high antimicrobial activity,0.04,strong antimicrobial activity effect,6.0 ± 0.1,14.1,8.3 ± 0.1,9.60,250,2000,250,62.5,31.2,62.5,
"CC1(C)S[C@@H]2[C@H](NC(=O)[C@H](N)c3ccccc3)C(=O)N2[C@H]1C(=O)O [AMP, ampicillin]",,resistant,0.6,1000,0.6,no clear zone appeared,,,1.97,strong antimicrobial activity effect,7.3 ± 0.2,14.2,16.9 ± 0.3,17.0,1000,31.2,250,1000,2000,1000,
CC[C@H](C)[C@H](N)C1=N[C@H](C(=O)N[C@@H](CC(C)C)C(=O)N[C@H](CCC(=O)O)C(=O)N[C@H](C(=O)N[C@H]2CCCCNC(=O)[C@H](CC(N)=O)NC(=O)[C@@H](CC(=O)O)NC(=O)[C@H](Cc3cnc[nH]3)NC(=O)[C@@H](Cc3ccccc3)NC(=O)[C@H]([C@@H](C)CC)NC(=O)[C@@H](CCCN)NC2=O)[C@@H](C)CC)CS1 [bacitracin] ({Ileψ(thiazoline)Cys}-L[dE]IK[dOrn]I[dF]H[dD]N; lactam 4-C),0.8,,,,,,,,,,,,,,,,,,,,
